Inconclusive results and toxic doses are left out. How the source made its calls: active means survival T/C of 150% or more; inactive means T/C below 125% in these data.
Key:
[1] = tested on: BDF1 mice, P388 leukemia ip, median survival T/C; test: NCI In Vivo Anticancer Drug Screen. Data for tumor model P388 Leukemia (intraperitoneal) in B6D2F1 (BDF1) mice; conditions: endpoint: median survival time, higher = longer survival
Method in brief: (§1)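 T/C = treated-group survival ÷ vehicle-control survival; tumour transplanted into mice before dosing.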

[2] = tested on: BDF1 mice, P388 leukemia ip; test: as above; conditions: endpoint: mean survival time, higher = longer survival
Method in brief: as §1

[3] = dose: 12.5 mg/kg/injection, schedule: Q01DX009 (ip), vehicle: saline
[4] = dose: 25.0 mg/kg/injection, schedule: Q01DX009 (ip), vehicle: saline

Measured: T/C

CC(C)(O)/C=C/C(=O)[C@](C)(O)[C@H]1[C@H](O)C[C@@]2(C)[C@@H]3CC=C4[C@@H](C=C(O)C(=O)C4(C)C)[C@]3(C)C(=O)C[C@]12C
inactive: [1]; dose: 6.25 mg/kg/injection, schedule: Q01DX009 (ip), vehicle: Klucel (hydroxypropylcellulose) (HPC) 100 % of control | [1]; dose: 6.25 mg/kg/injection, schedule: Q04DX003 (ip), vehicle: other 90 % of control | [1]; dose: 12.5 mg/kg/injection, schedule: Q04DX003 (ip), vehicle: other 104 % of control | [1]; dose: 25.0 mg/kg/injection, schedule: Q01DX009 (ip), vehicle: Klucel (hydroxypropylcellulose) (HPC) 100 % of control | [1]; dose: 25.0 mg/kg/injection, schedule: Q04DX003 (ip), vehicle: other 104 % of control | [1]; dose: 50.0 mg/kg/injection, schedule: Q01DX009 (ip), vehicle: Klucel (hydroxypropylcellulose) (HPC) 100 % of control | [1]; dose: 50.0 mg/kg/injection, schedule: Q04DX003 (ip), vehicle: other 109 % of control | [2]; dose: 1.5 mg/kg/injection, schedule: Q01DX010 (ip), vehicle: carboxymethylcellulose (CMC) 97 % of control | [2]; dose: 3.0 mg/kg/injection, schedule: Q01DX010 (ip), vehicle: carboxymethylcellulose (CMC) 99 % of control | [2]; dose: 6.0 mg/kg/injection, schedule: Q01DX010 (ip), vehicle: carboxymethylcellulose (CMC) 101 % of control

CCN(CC)CCCC(C)NC(=O)c1cccc2c([N+](=O)[O-])cccc12 (stereo not given)
inactive: [2]; dose: 3.12 mg/kg/injection, schedule: Q01DX009 (ip), vehicle: water 94 % of control | [2]; dose: 12.5 mg/kg/injection, schedule: Q01DX009 (ip), vehicle: water 100 % of control | [2]; dose: 25.0 mg/kg/injection, schedule: Q01DX009 (ip), vehicle: water 110 % of control | [2]; dose: 50.0 mg/kg/injection, schedule: Q01DX009 (ip), vehicle: water 95 % of control | [2]; dose: 100.0 mg/kg/injection, schedule: Q01DX009 (ip), vehicle: water 106 % of control

CC1(C)C(=O)C(O)=CC2C1=CCC1C2(C)C(=O)CC2(C)C(C(C)(O)C(=O)CC(O)C(C)(C)O)C(O)CC12C (stereo not given)
inactive: [2]; dose: 4.5 mg/kg/injection, schedule: Q01DX010 (ip), vehicle: carboxymethylcellulose (CMC) 95 % of control | [2]; dose: 9.0 mg/kg/injection, schedule: Q01DX010 (ip), vehicle: carboxymethylcellulose (CMC) 101 % of control | [2]; dose: 36.0 mg/kg/injection, schedule: Q01DX010 (ip), vehicle: carboxymethylcellulose (CMC) 103 % of control

Cc1ncc(CO)c(/C=N/OCc2ccc(OCc3ccccc3)cc2)c1O
inactive: [1]; dose: 50.0 mg/kg/injection, schedule: Q04DX003 (ip), vehicle: saline sonified 100 % of control | [1]; dose: 100.0 mg/kg/injection, schedule: Q04DX003 (ip), vehicle: saline sonified 100 % of control | [1]; dose: 200.0 mg/kg/injection, schedule: Q04DX003 (ip), vehicle: saline sonified 95 % of control

NC(=O)C1=C(O)C(=O)NC1=O
inactive: [1]; dose: 50.0 mg/kg/injection, schedule: Q04DX003 (ip), vehicle: Klucel (hydroxypropylcellulose) (HPC) 100 % of control | [1]; dose: 100.0 mg/kg/injection, schedule: Q04DX003 (ip), vehicle: Klucel (hydroxypropylcellulose) (HPC) 109 % of control | [1]; dose: 200.0 mg/kg/injection, schedule: Q04DX003 (ip), vehicle: Klucel (hydroxypropylcellulose) (HPC) 95 % of control

CCS/C(N)=N\N
inactive: [1]; [3] 100 % of control | [1]; [4] 104 % of control | [1]; dose: 25.0 mg/kg/injection, schedule: Q04DX003 (ip), vehicle: saline 109 % of control | [1]; dose: 50.0 mg/kg/injection, schedule: Q04DX003 (ip), vehicle: saline 104 % of control

O=C1c2cc([N+](=O)[O-])ccc2-c2cc(Cl)c(Cl)cc21
inactive: [1]; dose: 50.0 mg/kg/injection, schedule: Q01DX001 (ip), vehicle: saline sonified 86 % of control | [1]; dose: 100.0 mg/kg/injection, schedule: Q01DX001 (ip), vehicle: saline sonified 100 % of control | [1]; dose: 200.0 mg/kg/injection, schedule: Q01DX001 (ip), vehicle: saline sonified 90 % of control

NCCc1c[nH]c2ccc(F)cc12
inactive: [1]; [3] 91 % of control | [1]; [4] 98 % of control | [1]; dose: 50.0 mg/kg/injection, schedule: Q01DX009 (ip), vehicle: saline 98 % of control | [1]; dose: 100.0 mg/kg/injection, schedule: Q01DX009 (ip), vehicle: saline 91 % of control

— PubChem BioAssay AID328 (DTP/NCI, 2004)
